The text below walks through data of patent US4889862A, “Freeze-dried pharmaceutical compositions of phenylquinoline carboxylic acids” (E. I. Du Pont de Nemours and Company, priority 1987, dated 1989).

One data set is described as follows: in vivo. As for the experimental part:
A comparative test was performed on the title compound to evaluate possible lethality differences between compositions described herein and compositions prepared by dissolving in water. […] Following compound administration, mortality was evaluated twice daily for 14 days.

The next data set deals with L1210 leukemia. Kind of data set: In vivo antitumor activity against L1210 leukemia in mice (survival time). Details: species or system CDF1 mice; L1210 murine leukemia. Particulars: for Survival Time: % T/C (mean day of death treated/control × 100): intraperitoneal. How it is done:
Then distilled water (4 ml) was added to the above to make 50 mg/kg solution. Serial two-fold dilutions were made in distilled water from the 50 mg/kg solution for the remaining three concentrations. An unformulated control solution was prepared by dissolving the title compound in distilled water and was used while it remained clear.
The test was carried out as follows. On day 0, CDF1 mice were injected with 1×10^5 L1210 murine leukemia cells intraperitoneally. On day 1 formulated and unformulated title compound were injected intraperitoneally and the injections continued, once daily through day 9. Mice were observed until death.

In the case of `Cc1c(-c2ccc(-c3ccccc3F)cc2)nc2ccc(F)cc2c1C(=O)[O-].[Na+]`, the LD50 (usually the dose at which mortality reaches 50%) at 336 h in “in vivo” (mouse, in vivo) stood at 156 mg/kg. Besides, in the data set “in vivo” (vehicle D.I. H2O, pH = 8.5, single parenteral dose, female mice), the “Slope of the response curve” value was 1.18. Further, the “Survival Time: % T/C (mean day of death treated/control × 100)” value with L1210 leukemia (6.25 mg/kg/day × 9 days) was found to be 156%; with L1210 leukemia (12.5 mg/kg/day × 9 days), 167%; with L1210 leukemia (25 mg/kg/day × 9 days), 169%; in the data set on L1210 leukemia (50 mg/kg/day × 9 days), 89%. In the data set on L1210 leukemia (formulated vs unformulated), the “effect of sodium cholate and glycine on antitumor activity” value is reported as “no effect on the antitumor activity”.
